Article PMC10425210 (The Journal of Clinical Investigation, 2023)
“And” between values parts separate entries of the source, which are not always exact repeats. Equal values may be shown once.

What was measured:
[1] = Safety and tolerability of subcutaneous LEN dosing; assay type: in vivo, rhesus macaques
Text: Injections at all dose levels were generally well tolerated without notable clinical observations. […] Grade 1 edema and/or erythema was observed across multiple time points and animals from all 5 dose groups and was fully resolved by week 11 after dose.
All animals were housed at Bioqual Inc. For the in vivo SHIV stock titration study, 8 untreated outbred Indian-origin male rhesus macaques aged 3–5 years were challenged intrarectally per round for a total of 5 challenge rounds using increasing virus doses ranging from 0.625 to 100 TCID50, with the 100 TCID50 round performed twice for increased resolution (Supplemental Table 2). Plasma viral load was measured to confirm the infection status. […] Injection sites were monitored daily by veterinary staff for 2 weeks and then weekly through the end of study. On week 7, 11 animals were challenged by the intrarectal route with 1 mL RPMI containing 100 TCID50 SHIV-SF162P3. Whole blood was collected and processed into plasma and PBMCs as necessary for the assessment of routine hematology and clinical chemistry, viral load analysis, serology, and the bioanalysis of drug levels. Animals were considered protected if they remained SHIV negative by a plasma PCR assay and seronegative by enzyme immunoassay through week 10 after challenge.

HIV-1 = system: HIV-1; parameters: method as in ref 11 = [11]; PMID 32612233; doi:10.1038/s41586-020-2443-1; 11 Link JO et al Clinical targeting of HIV capsid protein with a long-acting small molecule Nature 2020 584 7822 614 618 10.1038/s41586-020-2443-1 32612233 PMC8188729; conditions: cited from earlier work

**Q.** Which “safety and tolerability of subcutaneous injection” value ([1]; all dose levels tested, 5-75 mg/kg) does the source give for `CC(C)(C#Cc1ccc(-c2ccc(Cl)c3c(NS(C)(=O)=O)nn(CC(F)(F)F)c23)c([C@H](Cc2cc(F)cc(F)c2)NC(=O)Cn2nc(C(F)(F)F)c3c2C(F)(F)[C@@H]2C[C@H]32)n1)S(C)(=O)=O` [LEN, Lenacapavir] here?
**A.** safe and well tolerated

**Q.** And the “time by which Grade 1 edema and/or erythema was fully resolved” value ([1]; male, outbred Indian-origin, rhesus monkey, in vivo)?
**A.** ≤ 11 week after dose

**Q.** And the Hematology analyses ([1]; rhesus monkey, in vivo)?
**A.** no abnormal values

**Q.** What about the EC50 (HIV-1; 23 HIV-1 clinical isolates, mitogen-activated human PBMCs, 7-day assay) of the same compound?
**A.** 0.05 ± 0.03 nM

**Q.** And the EC95 (HIV-1; 23 HIV-1 isolates, human PBMCs)?
**A.** 0.12 nM and 0.12 ± 0.07 nM
